Structures can show the parent of a compound that is named as a salt.
Target: kinase domain of IRE1 alpha (His-tagged kinase dead construct KR, AA G547-L977, D688N) (Homo sapiens (Human), UniProt O75460, D688N)
Assay: IRE1α TR-FRET competition binding assay
Conditions: competition with Kinase Tracer 236, 0.1 μM; one hour at room temperature
Outline: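 Sf9-expressed kinase-dead KR construct (0.006 μM final) pre-incubated 1 h at 4° C with Eu anti-His antibody (0.002 μM) in HEPES pH 7.5/MgCl2/Brij/DTT buffer; Kinase Tracer 236 (ATP-competitive probe, 0.1 μM final) added with compound. 1 h at room temperature; tracer displacement read by TR-FRET (665/615 nm).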

Sequence of kinase domain of IRE1 alpha (His-tagged kinase dead construct KR, AA G547-L977, D688N) (O75460 547-977 D688N): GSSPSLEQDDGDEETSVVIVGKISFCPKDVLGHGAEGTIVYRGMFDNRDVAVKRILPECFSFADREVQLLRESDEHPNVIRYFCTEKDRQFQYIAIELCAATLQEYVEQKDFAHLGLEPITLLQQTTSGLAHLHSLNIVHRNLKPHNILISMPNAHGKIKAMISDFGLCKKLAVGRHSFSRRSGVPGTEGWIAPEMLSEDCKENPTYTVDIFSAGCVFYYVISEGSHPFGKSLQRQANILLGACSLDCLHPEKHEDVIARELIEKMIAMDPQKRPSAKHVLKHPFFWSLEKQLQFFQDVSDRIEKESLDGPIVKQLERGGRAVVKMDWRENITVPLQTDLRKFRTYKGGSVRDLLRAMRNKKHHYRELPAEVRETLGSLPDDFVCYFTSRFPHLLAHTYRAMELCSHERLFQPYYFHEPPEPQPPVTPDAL

Structure (SMILES)	IC50 [nM]
N#Cc1ccccc1CS(=O)(=O)Nc1ccc(Oc2ncccc2-c2ccnc(N[C@H]3CCCNC3)n2)c(F)c1F [Compound 187, (S)-1-(2-cyanophenyl)-N-(2,3-difluoro-4-((3-(2-(piperidin-3-ylamino)pyrimidin-4-yl)pyridin-2-yl)oxy)phenyl)methanesulfonamide]	2.9
CCC(F)(F)CS(=O)(=O)Nc1c(F)cc(Oc2ncc(F)cc2-c2ccnc(N[C@@H]3CNC[C@@H](F)C3)n2)c(F)c1F [Compound 268, 2,2-Difluoro-N-(2,3,6-trifluoro-4-((5-fluoro-3-(2-(((3S,5S)-5-fluoropiperidin-3-yl)amino)pyrimidin-4-yl)pyridin-2-yl)oxy)phenyl)butane-1-sulfonamide]	1.1
O=S(=O)(Cc1ccccc1)Nc1c(F)cc(Oc2ncccc2-c2ccnc(NC3CNCC4(C3)CC4(F)F)n2)c(F)c1F (single isomer, unassigned) [Compound 300, N-(4-((3-(2-((1,1-Difluoro-5-azaspiro[2.5]octan-7-yl)amino)pyrimidin-4-yl)pyridin-2-yl)oxy)-2,3,6-trifluorophenyl)-1-phenylmethanesulfonamide]	8.7
CC(C)(F)C1CNCC(Nc2nccc(-c3cccnc3Oc3cc(F)c(NS(=O)(=O)Cc4ccccc4)c(F)c3F)n2)C1 (single isomer, unassigned) [Compound 336, 1-Phenyl-N-(2,3,6-trifluoro-4-((3-(2-((5-(2-fluoropropan-2-yl)piperidin-3-yl)amino)pyrimidin-4-yl)pyridin-2-yl)oxy)phenyl)methanesulfonamide hydrochloride]	0.42
CCN(C)S(=O)(=O)Nc1c(F)cc(Oc2ncccc2-c2ccnc(N[C@@H]3CNC[C@@H](F)C3)n2)c(F)c1F [Compound 269, 4-(2-(4-((Ethyl(methyl)sulfamoyl)amino)-2,3,5-trifluoro-phenoxy)-3-pyridyl)-2-(((3S,5S)-5-fluoro-3-piperidyl)amino)pyrimidine]	1.1
O=S(=O)(Cc1cccc(Cl)c1)Nc1ccc(Oc2ncccc2-c2ccnc(N[C@H]3CCCNC3)n2)c(F)c1F [Compound 225, (S)-1-(3-chlorophenyl)-N-(2,3-difluoro-4-((3-(2-(piperidin-3-ylamino)pyrimidin-4-yl)pyridin-2-yl)oxy)phenyl)methanesulfonamide]	6.1
OC(CNc1cccc(Oc2ncccc2-c2ccnc(N[C@H]3CCCNC3)n2)c1F)C(F)(F)F (single isomer, unassigned) [Compound 201]	210
Cc1c(F)c(NS(=O)(=O)Cc2ccc(C#N)cc2)c(F)c(F)c1Oc1ncccc1-c1ccnc(N[C@@H]2CNC[C@@H](F)C2)n1 [Compound 255, 1-(4-Cyanophenyl)-N-(2,3,6-trifluoro-4-((3-(2-(((3S,5S)-5-fluoropiperidin-3-yl)amino)pyrimidin-4-yl)pyridin-2-yl)oxy)-5-methylphenyl)methanesulfonamide]	230
O=S(=O)(Cc1ccccc1F)Nc1c(F)cc(Oc2ncccc2-c2ccnc(NC3CNCC(C4CC4)C3)n2)c(F)c1F (single isomer, unassigned) [Compound 326, N-(4-((3-(2-((5-Cyclopropylpiperidin-3-yl)amino)pyrimidin-4-yl)pyridin-2-yl)oxy)-2,3,6-trifluorophenyl)-1-(2-fluorophenyl)methanesulfonamide]	0.61
CN(C)S(=O)(=O)Nc1c(F)cc(Oc2ncccc2-c2ccnc(N[C@@H]3CNC[C@@H](F)C3)n2)c(F)c1F [Compound 266, 4-(2-(4-(Dimethylsulfamoylamino)-2,3,5-trifluoro-phenoxy)-3-pyridyl)-2-(((3S,5S)-5-fluoro-3-piperidyl)amino)pyrimidine]	8.6
CNCCNc1nccc(-c2cccnc2Oc2ccc(NS(=O)(=O)Cc3ccccc3)c(F)c2F)n1 [Compound 172, N-(2,3-difluoro-4-((3-(2-(2-(methylamino)ethylamino)pyrimidin-4-yl)-2-pyridyl)oxy)phenyl)-1-phenyl-methanesulfonamide]	42
O=S(=O)(Cc1ccccc1)Nc1ccc(Oc2ncccc2-c2ccnc(N[C@H]3CCCNC3)n2)cc1C(F)(F)F [Compound 113, (S)-1-phenyl-N-(4-((3-(2-(piperidin-3-ylamino)pyrimidin-4-yl)pyridin-2-yl)oxy)-2-(trifluoromethyl)phenyl)methanesulfonamide]	11
Cc1c(Oc2ncccc2-c2ccnc(N[C@H]3CCCNC3)n2)ccc(NS(=O)(=O)Cc2ccccc2)c1F [Compound 237, N-[2-Fluoro-3-methyl-4-[[3-[2-[[(3S)-3-piperidyl]amino]pyrimidin-4-yl]-2-pyridyl]oxy]phenyl]-1 phenylmethanesulfonamide]	8.4
Cc1cc(NS(=O)(=O)C(C)c2ccccc2)c(F)c(F)c1Oc1ncccc1-c1ccnc(N[C@@H]2CNC[C@@H](F)C2)n1 (single isomer, unassigned) [Compound 314]	0.24
O=S(=O)(CCC1CC1(F)F)Nc1ccc(Oc2ncccc2-c2ccnc(N[C@H]3CCCNC3)n2)c(F)c1F (stereo partly drawn) [Compound 217, N-(2,3-difluoro-4-((3-(2-(((S)-piperidin-3-yl)amino)pyrimidin-4-yl)pyridin-2-yl)oxy)phenyl)-2-(2,2-difluorocyclopropyl)ethane-1-sulfonamide]	16
O=S(=O)(Cc1ccccc1)Nc1c(F)cc(Oc2ncccc2-c2ccnc(N[C@H]3CCCNC3)n2)c(F)c1F [Compound 153, (S)-1-Phenyl-N-(2,3,6-trifluoro-4-((3-(2-(piperidin-3-ylamino)pyrimidin-4-yl)pyridin-2-yl)oxy)phenyl)methanesulfonamide hydrochloride]	3.8
CCC(F)(F)CS(=O)(=O)Nc1ccc(Oc2ncccc2-c2ccnc(N[C@H]3CCCNC3)n2)c(F)c1F [Compound 148, (S)-N-(2,3-Difluoro-4-((3-(2-(piperidin-3-ylamino)pyrimidin-4-yl)pyridin-2-yl)oxy)phenyl)-2,2-difluorobutane-1-sulfonamide hydrochloride]	6.5
Cc1c(Oc2ncccc2-c2ccnc(N[C@@H]3CNC[C@@](C)(F)C3)n2)cc(F)c(NS(=O)(=O)Cc2ccccc2)c1F [Compound 292, N-(2,6-Difluoro-4-((3-(2-(((3S,5S)-5-fluoro-5-methylpiperidin-3-yl)amino)pyrimidin-4-yl)pyridin-2-yl)oxy)-3-methylphenyl)-1-phenylmethanesulfonamide]	0.33
O=S(=O)(Cc1ccccc1F)Nc1c(F)cc(Oc2ncccc2-c2ccnc(N[C@@H]3CNC[C@@H](F)C3)n2)c(Cl)c1F [Compound 332, N-(3-Chloro-2,6-difluoro-4-((3-(2-(((3S,5S)-5-fluoropiperidin-3-yl)amino)pyrimidin-4-yl)pyridin-2-yl)oxy)phenyl)-1-(2-fluorophenyl)methanesulfonamide]	56
O=S(=O)(Cc1cccnc1C(F)(F)F)Nc1c(F)cc(Oc2ncccc2-c2ccnc(N[C@@H]3CNC[C@@H](F)C3)n2)c(F)c1F [Compound 389, N-(2,3,6-Trifluoro-4-((3-(2-(((3S,5S)-5-fluoropiperidin-3-yl)amino)pyrimidin-4-yl)pyridin-2-yl)oxy)phenyl)-1-(2-(trifluoromethyl)pyridin-3-yl)methanesulfonamide]	0.3
C[C@@]1(F)CNC[C@@H](Nc2nccc(-c3cccnc3Oc3cc(F)c(NS(=O)(=O)Cc4c(F)cccc4F)c(F)c3F)n2)C1 [Compound 282, 1-(2,6-Difluorophenyl)-N-(2,3,6-trifluoro-4-((3-(2-(((3S,5S)-5-fluoro-5-methylpiperidin-3-yl)amino)pyrimidin-4-yl)pyridin-2-yl)oxy)phenyl)methanesulfonamide]	0.27
C[C@]1(F)CNC[C@@H](Nc2nccc(-c3cccnc3Oc3ccc(NS(=O)(=O)Cc4ccccc4)c(F)c3F)n2)C1 [Compound 162, N-(2,3-difluoro-4-((3-(2-(((3S,5R)-5-fluoro-5-methylpiperidin-3-yl)amino)pyrimidin-4-yl)pyridin-2-yl)oxy)phenyl)-1-phenylmethanesulfonamide]	6.9
O=S(=O)(Cc1ccccc1)Nc1cc(F)c(Oc2ncccc2-c2ccnc(N[C@H]3CCCNC3)n2)cc1F [Compound 107, (S)-N-(2,5-difluoro-4-((3-(2-(piperidin-3-ylamino)pyrimidin-4-yl)pyridin-2-yl)oxy)phenyl)-1-phenylmethanesulfonamide hydrochloride]	5.2
O=S(=O)(Cc1ccc(F)cc1F)Nc1c(F)cc(Oc2ncccc2-c2ccnc(N[C@@H]3CNC[C@H](CF)C3)n2)c(F)c1F [Compound 320, 1-(2,4-Difluorophenyl)-N-(2,3,6-trifluoro-4-((3-(2-(((3S,5R)-5-(fluoromethyl)piperidin-3-yl)amino)pyrimidin-4-yl)pyridin-2-yl)oxy)phenyl)methanesulfonamide]	35
OC(CNc1cccc(Oc2ncccc2-c2ccnc(N[C@H]3CCCNC3)n2)c1F)C(F)(F)F (single isomer, unassigned) [Compound 200]	530
CS(=O)(=O)c1ccc(CS(=O)(=O)Nc2c(F)cc(Oc3ncccc3-c3ccnc(N[C@@H]4CNC[C@@H](F)C4)n3)c(F)c2F)cc1 [Compound 312, 1-(4-(Methylsulfonyl)phenyl)-N-(2,3,6-trifluoro-4-((3-(2-(((3S,5S)-5-fluoropiperidin-3-yl)amino)pyrimidin-4-yl)pyridin-2-yl)oxy)phenyl)methanesulfonamide]	0.14
O=S(=O)(Cc1ccccc1)Nc1c(F)cc(Oc2ncccc2-c2ccnc(NC3CNCC(C(F)F)C3)n2)c(F)c1F (single isomer, unassigned) [Compound 302, N-(4-((3-(2-((5-(Difluoromethyl)piperidin-3-yl)amino)pyrimidin-4-yl)pyridin-2-yl)oxy)-2,3,6-trifluorophenyl)-1-phenylmethanesulfonamide]	0.44
